Read-outs that look alike come from different tables or passages of the source.
Experiments:
human placental NOS = target: T1, human placental NOS (Homo sapiens, UniProt P29474); test: Assay for human placental NOS (citrulline formation); type: biochemical
T1 construct: Purification of NOS from human placenta; from tissue; host or cells: fresh human placenta
Method: (§1) NOS was assayed for the formation of citrulline following the procedure of Schmidt et al (PNAS 88 365-369, 1991) with these modifications: 20 mM Hepes, pH 7.4, 10 μg/ml calmodulin, 2.5 mM CaCl2 2.5 mM DTT, 125 μM NADPH 10 μM H4 Biopterin, 0.5 mg/ml BSA, and 1 μM L-[14C] arginine (New England Nuclear). Linearity of NOS-catalyzed rate was confirmed prior to kinetic studies that used single tine point determination of rate.

inducible human NOS = target: T2, inducible human NOS (Homo sapiens, UniProt P35228); test: Assay for inducible human NOS (citrulline formation), enzyme from cytokine-induced DLD-1 cells; type: biochemical
T2 construct: Purification of NOS cytokine-induced human colorectal adenocarcinoma DLD-1 cells; endogenous in cells; host or cells: DLD-1 (ATCC No. CCL 221), induced with IFN-gamma, IL-6, TNF and IL-1beta
T2 sequence (P35228 whole entry): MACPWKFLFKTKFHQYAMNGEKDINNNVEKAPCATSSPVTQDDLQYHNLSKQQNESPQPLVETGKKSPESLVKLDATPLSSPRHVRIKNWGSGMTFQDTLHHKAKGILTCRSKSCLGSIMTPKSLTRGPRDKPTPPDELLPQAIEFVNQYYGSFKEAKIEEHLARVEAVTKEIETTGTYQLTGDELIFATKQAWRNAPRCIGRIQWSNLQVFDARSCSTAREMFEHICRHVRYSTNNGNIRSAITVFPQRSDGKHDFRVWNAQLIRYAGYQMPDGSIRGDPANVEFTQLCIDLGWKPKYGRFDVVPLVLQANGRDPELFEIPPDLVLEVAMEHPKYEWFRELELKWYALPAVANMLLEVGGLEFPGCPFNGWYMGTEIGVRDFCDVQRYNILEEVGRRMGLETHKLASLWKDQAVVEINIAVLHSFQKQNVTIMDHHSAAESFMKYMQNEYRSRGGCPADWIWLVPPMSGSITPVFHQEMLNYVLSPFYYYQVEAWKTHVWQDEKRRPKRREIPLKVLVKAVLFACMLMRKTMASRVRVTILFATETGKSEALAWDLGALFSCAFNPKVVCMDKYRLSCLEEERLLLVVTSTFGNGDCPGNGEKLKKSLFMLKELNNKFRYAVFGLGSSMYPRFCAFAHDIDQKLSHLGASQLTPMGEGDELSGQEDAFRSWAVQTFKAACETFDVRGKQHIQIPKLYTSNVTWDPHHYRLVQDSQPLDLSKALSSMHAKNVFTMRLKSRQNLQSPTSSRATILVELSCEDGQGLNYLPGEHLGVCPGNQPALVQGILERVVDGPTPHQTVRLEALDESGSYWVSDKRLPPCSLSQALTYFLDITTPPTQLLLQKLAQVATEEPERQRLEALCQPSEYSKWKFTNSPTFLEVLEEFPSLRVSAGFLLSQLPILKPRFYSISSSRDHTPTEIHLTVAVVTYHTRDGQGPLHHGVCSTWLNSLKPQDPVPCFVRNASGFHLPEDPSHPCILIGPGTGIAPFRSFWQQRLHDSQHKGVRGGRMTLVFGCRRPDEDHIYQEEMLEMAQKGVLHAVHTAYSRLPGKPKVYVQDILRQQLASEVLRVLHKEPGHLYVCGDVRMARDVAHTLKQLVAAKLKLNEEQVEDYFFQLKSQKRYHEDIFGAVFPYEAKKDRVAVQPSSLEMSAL
Method: as §1
DLD-1 (ATCC No. CCL 221) were grown at 37° C., 5% CO2 in RPMI 1640 medium supplemented with L-glutamin, penicillin, streptomycin, and 10% heat-inactivated fetal bovine serum. Cells were grown to confluency and then the following cocktail of cytokines were added: 100 units/ml interferon-gamma, 200 units/ml interleukin-6, 10 ng/ml tumor necrosis factor, and 0.5 ng/mil interleukin-1β. At 10-24 hr post-induction, cells were harvested by scraping and washed with phosphate-buffered saline. Pelleted cells were stored at −70° C. Purification of the induced NOS was performed at 4° C. Crude extract was prepared by three cycles of freeze/thawing cells in TDGB (20 mM tris pH 7.5, 10% glycerol, 1 mM DTT, 2 μM tetrahydrobiopterin). Extract was applied directly onto a column of 2′,5′ ADP sepharse (Pharmacia). Resin was sequentially washed with TDGB, 0.5 M NaCl in TDGB, TDGB. NOS was eluted with 2 mM NADPH in TDGB. BSA was immediately added to give a final concentration of 1 mg/ml. NOS could be quick frozen and stored at −70° C. without loss in activity for at least 2 months.
Assay for inducible human NOS.
The formation of citrulline was assayed as described above except that 10 μM FAD was included and calmodulin and CaCl2 were excluded from the assay mix.

Human brain NOS = target: T3, Human brain NOS (Homo sapiens, UniProt P29475); test: Human brain NOS enzyme activity assay; type: biochemical; details: for Ki: isolated enzyme from human brain
T3 construct: Purification of NOS from human brain; from tissue; host or cells: frozen human brain
T3 sequence (P29475 whole entry): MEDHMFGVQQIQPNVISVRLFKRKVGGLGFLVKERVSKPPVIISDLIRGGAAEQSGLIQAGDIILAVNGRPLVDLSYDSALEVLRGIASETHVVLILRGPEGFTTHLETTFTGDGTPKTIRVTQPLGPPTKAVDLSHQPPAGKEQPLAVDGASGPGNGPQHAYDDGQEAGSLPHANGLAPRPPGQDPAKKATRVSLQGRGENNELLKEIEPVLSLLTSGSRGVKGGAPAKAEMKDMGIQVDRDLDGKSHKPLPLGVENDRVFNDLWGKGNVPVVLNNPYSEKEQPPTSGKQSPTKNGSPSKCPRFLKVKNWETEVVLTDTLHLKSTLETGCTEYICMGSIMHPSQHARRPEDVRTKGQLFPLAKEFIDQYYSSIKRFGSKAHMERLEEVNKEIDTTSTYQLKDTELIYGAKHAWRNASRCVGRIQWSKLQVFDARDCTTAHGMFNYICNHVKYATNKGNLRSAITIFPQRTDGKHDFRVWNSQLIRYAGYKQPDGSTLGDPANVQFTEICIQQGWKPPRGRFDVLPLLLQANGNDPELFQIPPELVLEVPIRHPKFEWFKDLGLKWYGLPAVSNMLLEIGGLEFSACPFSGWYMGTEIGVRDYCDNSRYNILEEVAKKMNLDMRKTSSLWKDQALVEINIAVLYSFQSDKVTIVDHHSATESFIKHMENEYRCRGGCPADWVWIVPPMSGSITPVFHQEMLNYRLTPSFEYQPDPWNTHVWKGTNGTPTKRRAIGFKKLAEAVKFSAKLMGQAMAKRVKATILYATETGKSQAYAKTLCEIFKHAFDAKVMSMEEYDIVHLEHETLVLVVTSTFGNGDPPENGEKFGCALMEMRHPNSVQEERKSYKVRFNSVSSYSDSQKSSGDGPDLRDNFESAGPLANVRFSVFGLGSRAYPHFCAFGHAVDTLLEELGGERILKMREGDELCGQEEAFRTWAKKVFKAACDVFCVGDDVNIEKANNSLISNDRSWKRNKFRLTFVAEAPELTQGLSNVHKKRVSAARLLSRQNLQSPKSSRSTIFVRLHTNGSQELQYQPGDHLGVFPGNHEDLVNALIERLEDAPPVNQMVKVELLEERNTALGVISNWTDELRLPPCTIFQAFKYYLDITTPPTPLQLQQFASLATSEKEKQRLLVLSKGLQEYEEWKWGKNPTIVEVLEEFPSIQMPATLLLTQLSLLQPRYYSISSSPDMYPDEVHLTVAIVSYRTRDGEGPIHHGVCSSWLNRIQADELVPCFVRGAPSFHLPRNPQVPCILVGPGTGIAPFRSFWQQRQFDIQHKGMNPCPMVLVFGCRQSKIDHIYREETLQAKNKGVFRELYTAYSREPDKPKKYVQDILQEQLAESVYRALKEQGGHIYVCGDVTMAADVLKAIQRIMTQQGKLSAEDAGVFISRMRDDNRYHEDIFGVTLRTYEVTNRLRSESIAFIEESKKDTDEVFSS
Method: The mixture was centrifuged at 13,000 g for 1 hour and the supernatant was removed (about 2050 ml). […] The precipitate was pelleted at 13,000 g for 30 minutes and the pellet was resuspended in −400 mls of buffer A with 4 μM tetrahydrobiopterin, 1 μm FAD (Sigma), 1 μM FMN (Sigma). The solution was centrifuged at 41,000 g for 60 minutes. The supernatant was removed, frozen by pouring into liquid nitrogen, and stored overnight at −70° C. The mixture was thawed and passed through a 2′,5′ ADP-agarose column (0.4 g swelled in buffer A) at 4 ml/min. The column was washed with 100 ml buffer A, 200 ml buffer A with 500 mM NaCl, 100 ml Buffer A, then 30 ml buffer A with 5 mM NADPH. […] To the enzyme was added tetrahydrobiopterin to 10 μM, FAD and FMN to 1 μM, and tween to 0.1%. This solution was concentrated by centriprep-30 to a volume of approximately 500 μl. Human NOS was prepared completely analogously except the calmodulin-agarose column was not used.

[1] = isolated enzyme from human placenta, read-out: Human Placental Ki/μM
[2] = isolated enzyme from DLD-1 cells, read-out: Human Inducible Ki/μM

T1 sequence (P29474 2-1203): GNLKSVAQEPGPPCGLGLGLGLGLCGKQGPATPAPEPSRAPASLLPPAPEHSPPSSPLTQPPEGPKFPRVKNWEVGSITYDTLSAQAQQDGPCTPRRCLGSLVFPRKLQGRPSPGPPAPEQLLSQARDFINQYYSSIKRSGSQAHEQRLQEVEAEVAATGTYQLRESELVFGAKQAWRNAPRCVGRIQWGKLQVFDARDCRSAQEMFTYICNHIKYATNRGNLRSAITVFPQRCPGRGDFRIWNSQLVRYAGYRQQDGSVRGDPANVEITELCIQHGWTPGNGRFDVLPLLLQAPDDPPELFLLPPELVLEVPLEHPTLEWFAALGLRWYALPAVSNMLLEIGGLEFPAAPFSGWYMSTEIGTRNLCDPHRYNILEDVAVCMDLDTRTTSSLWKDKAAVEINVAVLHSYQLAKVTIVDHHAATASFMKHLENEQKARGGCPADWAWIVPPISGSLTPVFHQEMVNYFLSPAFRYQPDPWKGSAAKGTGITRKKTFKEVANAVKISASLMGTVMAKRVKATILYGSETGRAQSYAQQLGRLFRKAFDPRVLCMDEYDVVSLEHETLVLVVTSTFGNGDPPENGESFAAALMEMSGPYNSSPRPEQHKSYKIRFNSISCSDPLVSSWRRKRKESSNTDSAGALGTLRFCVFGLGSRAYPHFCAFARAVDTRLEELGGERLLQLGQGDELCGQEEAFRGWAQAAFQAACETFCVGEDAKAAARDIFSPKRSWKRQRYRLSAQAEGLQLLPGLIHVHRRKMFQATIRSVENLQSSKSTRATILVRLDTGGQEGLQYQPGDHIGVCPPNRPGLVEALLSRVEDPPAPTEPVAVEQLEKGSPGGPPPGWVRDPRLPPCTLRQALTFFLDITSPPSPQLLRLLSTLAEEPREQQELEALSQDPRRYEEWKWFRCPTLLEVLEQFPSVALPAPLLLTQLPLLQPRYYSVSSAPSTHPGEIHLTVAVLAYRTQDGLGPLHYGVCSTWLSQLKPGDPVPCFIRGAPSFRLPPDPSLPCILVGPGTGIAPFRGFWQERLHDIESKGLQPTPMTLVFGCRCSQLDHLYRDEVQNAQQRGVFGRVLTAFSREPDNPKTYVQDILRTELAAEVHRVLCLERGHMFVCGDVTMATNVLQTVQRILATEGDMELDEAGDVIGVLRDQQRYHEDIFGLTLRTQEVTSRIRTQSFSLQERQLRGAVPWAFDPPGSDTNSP

Ki (human placental NOS; [1]) [µM]	Ki (inducible human NOS; [2]) [µM]	Ki (Human brain NOS) [µM]	SMILES	also measured
14	5.3	5.5	CC(C)CSC(=N)NCCC[C@H](N)C(=O)O [Example 9E, N^5-(imino(2-methylpropylthio)methyl)-L-ornithine]	–
1.6	1.4	0.17 ± 0.02	CCSC(=N)Nc1ccccc1OC [Example 2H, S-Ethyl-N-(2-methoxyphenyl)isothiourea]	–
1.8	2.9	0.17	CCSC(=N)Nc1ccccc1Cl [Example 2G]	–
1.8	22	1.4 ± 0.01	CCSC(=N)Nc1ccccc1C(F)(F)F [Example 2F, S-Ethyl-N-[2-(trifluoromethyl)phenyl]isothiourea]	–
2	4.7	0.25 ± 0.02	CCSC(=N)Nc1ccccc1Br [Example 1F, S-ethyl-N-(2-bromophenyl)isothiourea]	–
23.2	22.6	28	CC(C)SC(=N)NCCCC[C@H](N)C(=O)O [Example 9D, N^6-(imino(1-methylethylthio)methyl)L-lysine]	–
2.8	6.6	0.21 ± 0.01	CCSC(=N)Nc1ccc(OCc2ccccc2)cc1 [Example 1B, S-ethyl-N-[4-(benzyloxy)phenyl]isothiourea]	–

Further lines, the compound ahead of its results:

SMILES	Ki (human placental NOS; [1]) [µM]	Ki (inducible human NOS; [2]) [µM]	Ki (Human brain NOS) [µM]	also measured
N=C(Nc1ccc(C(F)(F)F)cc1)SCc1ccccc1 [Example 2A, S-Benzyl-N-[4-(trifluoromethyl)phenyl]isothiourea]	–	–	–	Human Placental, percent (inhibition), concentration not given (human placental NOS): 0%; Human Inducible, percent (inhibition), concentration not given (inducible human NOS): 0%; inhibition at 25 µM (Human brain NOS; @ 25 μM inhibitor, read-out: Human Brain, percent (inhibition) @ 25 μM): 11%; melting point: 71 to 72 °C
COC(=N)Nc1ccc(C(F)(F)F)cc1 [Example 3, O-Methyl-N-(4-(trifluoromethyl)phenyl)isourea]	–	–	–	Human Placental, percent (inhibition), concentration not given (human placental NOS): 14%; Human Inducible, percent (inhibition), concentration not given (inducible human NOS): 4%; Human Brain, percent (inhibition), concentration not given (Human brain NOS; concentration not given): 24%; melting point: 121 to 123 °C
CSC(=N)NCCC[C@H](N)C(=O)O [Example 8]	–	–	–	Ki (human placental NOS; from percent inhibition at three or more concentrations at a single time point, assuming competitive inhibition with respect to arginine, read-out: Human Placental Ki/μM (footnote b)): 0.07 µM; Ki (inducible human NOS; from steady state inhibited rate / control rate, assuming competitive inhibition with respect to arginine, read-out: Human Inducible Ki/μM (footnote a)): 0.034 µM; Kd (Human brain NOS; Kd from association and dissociation rate constants for the slow onset of inhibition, read-out: Human Brain Ki/μM (footnote c: value is a Kd)): 0.001 µM
CSC(=N)NCc1cccc(CN)c1 [Example 13, 1-(3-(Aminomethyl)benzyl)-S-methylisothiourea]	3.3	0.69	3	–
CCSC(=N)Nc1ccc(Oc2ccccc2)cc1 [Example 1, S-Ethyl-N-(4-phenoxyphenyl)isothiourea]	4	3.1	0.19 ± 0.01	–

— patent US20010034342A1, “Substituted urea and isothiourea derivatives as no synthase inhibitors” (priority 1993, published 2001)
